Data taken from patent US8399378B2, “Use of neonicotinoids in pest control” (Syngenta Crop Protection LLC, priority 1998, dated 2013).

Key:
Type in all cases: in vivo
Anthonomus grandis = experiment: Spray test on young cotton plants, action against Anthonomus grandis adults; settings: spray 100, 50, 10, 5, 1 ppm, evaluation 3 to 10 days
Text: (§1) Young transgenic cotton plants which express the δ-endotoxin CryIIIA are sprayed with an aqueous emulsion spray mixture comprising 100, 50, 10, 5, 1 ppm of imidacloprid respectively. After the spray coating has dried on, the cotton plants are populated with 10 adult Anthonomus grandis, 10 Spodoptera littoralis larvae or 10 Heliothis virescens larvae respectively and introduced into a plastic container. Evaluation takes place 3 to 10 days later.
as §1, with “thiamethoxam” for “imidacloprid”
as §1, with “Ti-435” for “imidacloprid”
as §1, with “CryIa(c)” for “CryIIIA”, “Ti-435” for “imidacloprid”
as §1, with “CryIa(c)” for “CryIIIA”, “thiamethoxam” for “imidacloprid”
as §1, with “CryIa(c)” for “CryIIIA”

Spodoptera littoralis [1] = experiment: Spray test on young cotton plants, action against Spodoptera littoralis larvae
Text: as §1
as §1, with “thiamethoxam” for “imidacloprid”
as §1, with “Ti-435” for “imidacloprid”
as §1, with “CryIa(c)” for “CryIIIA”, “Ti-435” for “imidacloprid”
as §1, with “CryIa(c)” for “CryIIIA”, “thiamethoxam” for “imidacloprid”
as §1, with “CryIa(c)” for “CryIIIA”

Heliothis virescens = experiment: Spray test on young cotton plants, action against Heliothis virescens larvae; settings: spray 100, 50, 10, 5, 1 ppm, evaluation 3 to 10 days
Text: as §1
as §1, with “thiamethoxam” for “imidacloprid”
as §1, with “Ti-435” for “imidacloprid”, “later. […]” for “later.”

Diabrotica balteata = experiment: Maize seedling spray test, action against Diabrotica balteata; settings: 6 days
Procedure: A plot (a) planted with maize seedlings cv. KnockOut® and an adjacent plot (b) of the same size which is planted with conventional maize are sprayed with an aqueous emulsion of a spray mixture comprising 400 ppm thiamethoxam. Immediately afterwards, plot (b) is treated with an emulsion spray mixture comprising 400 ppm of the endotoxin expressed by KnockOut®. After the spray coating has dried on, the seedlings are populated with 10 Diabrotica balteata larvae in the second stage and transferred to a plastic container. The test is evaluated 6 days later. The percentage reduction in population (% action) is determined by comparing the number of dead pests on the plants of plot (a) with that on the plants of plot (b).

Nephotettix cincticeps = experiment: Rice plant spray test, action against Nephotettix cincticeps; settings: 20° C, 21 days; for control (percentage reduction in population, % action): spray 400 ppm, 2nd and 3rd stages; for control level: plot (b) conventional rice plants, 400 ppm compound
Procedure: (§2) Rice plants on a plot (a) expressing the δ-endotoxin CryIA(b) and conventional rice plants on a plot (b) are sprayed with a spray mixture comprising 400 ppm thiamethoxam. Immediately afterwards, plot (b) is treated with an emulsion spray mixture comprising 400 ppm of the δ-endotoxin CryIA(b). After the spray coating has dried on, the plants are infected with Nephotettix cincticeps of the 2nd and 3rd stages. The seedlings of plot (a) and (b) are then incubated at 20° C. The test is evaluated after 21 days.
(§3) The percentage reduction in population (% action) is determined by comparing the number of dead pests on the plants of plot (a) with that on the plants of plot (b).
as §2, with “CryIA(c)” for “CryIA(b)”, “CryIA(c).” for “CryIA(b).”

Nilaparvata lugens = experiment: Rice plant spray test, action against Nilaparvata lugens; settings: 20° C, 21 days; for control (percentage reduction in population, % action): infected, then spray 400 ppm; for control level: plot (b) conventional rice plants, 400 ppm compound
Procedure: (§4) Rice plants on a plot (a) expressing the δ-endotoxin CryIA(b) and conventional rice plants on a plot (b) are infected with Nilaparvata lugens, subsequently sprayed with a spray mixture comprising 400 ppm thiamethoxam. Immediately afterwards, plot (b) is treated with an emulsion spray mixture comprising 400 ppm of the δ-endotoxin CryIA(b). The seedlings of plot (a) and (b) are then incubated at 20° C. The test is evaluated after 21 days.
as §3
as §4, with “CryIA(c)” for “CryIA(b)”, “CryIA(c).” for “CryIA(b).”

Spodoptera littoralis [2] = experiment: Spray test on young cotton plants, action against Spodoptera littoralis larvae; remark: listed apart in the source
[3] = transgenic cotton expressing δ-endotoxin CryIIIA, compared with non-transgenic plant
[4] = transgenic cotton expressing δ-endotoxin CryIa(c)
[5] = plot (a) rice plants expressing δ-endotoxin CryIA(b)
[6] = plot (a) rice plants expressing δ-endotoxin CryIA(c)
[7] = then 400 ppm δ-endotoxin CryIA(b)
[8] = then 400 ppm δ-endotoxin CryIA(c)

CN1COCN(Cc2cnc(Cl)s2)/C1=N\[N+](=O)[O-] [thiamethoxam, 5-(2-Chlorthiazol-5-ylmethyl)-3-methyl-4-nitroimino-perhydro-1,3,5-oxadiazin]
control of the tested insects (percentage reduction in population or feeding damage, % action) (Anthonomus grandis; [3]): superior
control of the tested insects (percentage reduction in population or feeding damage, % action) (Anthonomus grandis; [4]): superior
control of the tested insects (percentage reduction in population or feeding damage, % action) (Spodoptera littoralis [1]; non-transgenic cotton treated with compound and conventional CryIIIA-toxin, each 100, 50, 10, 5, 1 ppm, comparison arm for CryIa(c) cotton): insufficient
control of the tested insects (percentage reduction in population or feeding damage, % action) (Spodoptera littoralis [1]; transgenic cotton expressing δ-endotoxin CryIa(c), spray 100, 50, 10, 5, 1 ppm, evaluation 3 to 10 days): superior
control of the tested insects (percentage reduction in population or feeding damage, % action) (Heliothis virescens; [3]): superior
control of the tested insects (percentage reduction in population or feeding damage, % action) (Heliothis virescens; [4]): superior
control (percentage reduction in population, % action) (Diabrotica balteata; plot (a) maize seedlings cv. KnockOut, spray 400 ppm, larvae in the second stage): Improved control
control level (Diabrotica balteata; plot (b) conventional maize, 400 ppm compound, then 400 ppm of the endotoxin expressed by KnockOut): ≤ 60%
control (percentage reduction in population, % action) (Nephotettix cincticeps; [5]): Improved control
control (percentage reduction in population, % action) (Nephotettix cincticeps; [6]): Improved control
control level (Nephotettix cincticeps; [7]): ≤ 60%
control level (Nephotettix cincticeps; [8]): ≤ 60%
control (percentage reduction in population, % action) (Nilaparvata lugens; [5]): Improved control
control (percentage reduction in population, % action) (Nilaparvata lugens; [6]): Improved control
control level (Nilaparvata lugens; [7]): ≤ 60%
control level (Nilaparvata lugens; [8]): ≤ 0%
control of the tested insects (percentage reduction in population or feeding damage, % action) (Spodoptera littoralis [2]; non-transgenic cotton treated with compound and conventional CryIIIA-toxin, each 100, 50, 10, 5, 1 ppm, comparison arm for CryIIIA cotton): insufficient
control of the tested insects (percentage reduction in population or feeding damage, % action) (Spodoptera littoralis [2]; transgenic cotton expressing δ-endotoxin CryIIIA, spray 100, 50, 10, 5, 1 ppm, evaluation 3 to 10 days, compared with non-transgenic plant): superior
